For data set [1], the system named is HepG2 2.2.15 cells (a cell line that expresses the hepatitis B virus). Kind of data set: In vitro cell line evaluation: HBsAg/HBeAg levels in culture media of HepG2 2.2.15 cells (AXSYM system kit). Type of data set: cell-based. Further details: HBsAg level: unit of the concentration uncertain. The note with it: 6-9 days of incubation. On the procedure: In the following experimental examples, when HepG2 2.2.15 cells (a cell line that expresses the hepatitis B virus) are used, the cells are maintained in Dulbecco's modified Eagle's medium (DMEM) (Gibco BRL, Grand Island, NY, USA) plus 10% fetal bovine serum (Hyclone, Logan, UT, USA), 100U/mL penicillin, […] streptomycin. HepG2.2.15 cells were seeded at the same density and used as a medium control. The experimental group is composed by administering the substance in the concentration specified by the manufacturer. All cultures were grown in humidified incubators at 37° C. and 5% CO2.
HepG2 2.2.15 cells were plated into 12-well microtiter plates. On day zero, the cells were washed several times with PBS and treated with tetracycline-free medium that contained either a test drug or a vehicle control group. Each test compound was screened at one concentration in triplicate. On day 3, day 6 and/or day 9, the medium was removed and replaced with fresh medium containing the compound. Twenty-four hours later, the medium was collected and clarified by centrifugation (Sorvall RT-6000D centrifuge, 1,000 rpm, 5 min). Media of HepG2 2.2.15 cells cultures were harvested at 3—, 6-, and 9-days post-HBV infection, and levels of hepatitis B surface antigen (HBsAg) and hepatitis B e antigen (HBeAg) in culture media were measured using an AXSYM system kit (Abbott Diagnostika).
In experimental example 1, five hepatitis treatment groups were prepared and added to HepG2 2.2.15 cells for evaluation. Group 1 is a control group containing only medium (PBS), whereby no drug compound is added. Group 2 is where a conventional drug Entecavir […] is used alone. Group 3 (CPD-0148) is directed to a compound of formula (IA2) […]. Group 4 (CPD-0150) is directed to a compound of formula (IA3) […]. Group 5 (CPD-0147) is directed to a compound of formula (IA4) […]. After 6-9 days of incubation with the above treatment groups, the levels of hepatitis B surface antigen (HBsAg) were measured using an AXSYM system kit (Abbott Diagnostika), and the results are shown in FIG. 10.
In experimental example 2, eight hepatitis treatment groups were prepared and added to HepG2 2.2.15 cells for evaluation. Group 1 is a control group containing only medium (PBS), whereby no drug compound is added. Group 2 is where a conventional drug Birinapant […] is used alone. Group 3 (CPD-0004) is directed to a compound of formula (IB1) […]. Group 4 (CPD-0030) is directed to a compound of formula (IB7) […]. Group 5 (CPD-0036) is directed to a compound of formula (IB2) […]. Group 6 (CPD-0133) is directed to a compound of formula (IB3) […]. Group 7 (CPD-0142) is directed to a compound of formula (IB4) […]. Group 8 (CPD-0186) is directed to a compound of formula (IB5) […]. After 6-9 days of incubation with the above treatment groups, the levels of hepatitis B surface antigen (HBsAg) were measured using an AXSYM system kit (Abbott Diagnostika), and the results are shown in FIG. 11.
In experimental example 3, thirteen hepatitis treatment groups were prepared and added to HepG2 2.2.15 cells for evaluation. Group 1 is a control group containing only medium (PBS), whereby no drug compound is added. Group 2 (Teno-Int) is where an intermediate of the conventional drug Tenofovir (100 mM; structure shown in first step of FIG. 3) is used alone. Group 3 (CPD-0134) is directed to a compound of formula (IC1) […]. Group 4 (CPD-0136) is directed to a compound of formula (IC2) […]. Group 5 (CPD-0137) is directed to a compound of formula (IC3) (510 mM). Group 6 (CPD-0138) is directed to a compound of formula (IC4) […]. Group 7 (CPD-0139) is directed to a compound of formula (IC5) […]. Group 8 (CPD-0143) is directed to a compound of formula (IC6) […]. Group 9 (CPD-0144) is directed to a compound of formula (IC7) […]. Group 10 (CPD-0149) is directed to a compound of formula (IC8) […]. Group 11 (CPD-0158) is directed to a compound of formula (IC9) […]. Group 12 (CPD-0169) is directed to a compound of formula (IC10) […]. […]

The conditions of data set [2]: clinical studies, Birinapant used in combination with HBV drugs such as Tenofovir or Entecavir; cited from earlier work.
[3] abbreviates: Experimental example 6, HepG2 2.2.15 cells, 100 mM (each), FIG. 15.

For the compound `CN[C@@H](C)C(=O)N[C@H](C(=O)N1CCC[C@H]1c1nc(C(=O)c2ccc(F)cc2)cs1)C1CCCCC1` [LCL161], in data set [1] (Experimental example 4, HepG2 2.2.15 cells, 500 (unit uncertain), FIG. 13), the HBsAg level result is recorded as “capable of reducing the HBsAg level as compared with the control”.

Take `CC[C@H](NC(=O)[C@H](C)NC)C(=O)N1C[C@@H](O)C[C@H]1Cc1c(-c2[nH]c3cc(F)ccc3c2C[C@@H]2C[C@H](O)CN2C(=O)[C@H](CC)NC(=O)[C@H](C)NC)[nH]c2cc(F)ccc12` [Birinapant]: the side effects result in data set [2] is given as “cranial nerve palsies (or Bell's palsies)”. The HBsAg level result in data set [1] (Experimental example 2, HepG2 2.2.15 cells, 500 (unit uncertain), FIG. 11) is listed as “capable of reducing the HBsAg level as compared with the control”.

Regarding `C=C1[C@H](CO)[C@@H](O)C[C@@H]1n1cnc2c(=O)[nH]c(N)nc21` [Entecavir], in data set [1] (Experimental example 1, HepG2 2.2.15 cells, 100 (unit uncertain), FIG. 10), the HBsAg level result is “capable of reducing the HBsAg level as compared with the control”. Further, in data set [1] (setting [3]), the HBeAg level result is “effective in reducing the HBsAg and HBeAg levels as compared with the control”; the HBsAg level result is “effective in reducing the HBsAg and HBeAg levels as compared with the control”. Turning to `C[C@@H](O)Cn1cnc2c(N)ncnc21` [Teno-Int, (R)-1-(6-amino-9H-purin-9-yl)propan-2-ol], the HBsAg level entry in data set [1] (Experimental example 3, HepG2 2.2.15 cells, 100 mM (IC3: 510 mM), FIG. 12) was “slightly reduced as compared to the control”.

Source of the values: US12508320B2, “Drug conjugate, pharmaceutical composition and method of treating hepatitis” (SeeCure Taiwan Co., Ltd., priority 2023, dated 2025).
